Literature values as cited in patent US9687554B2, “Finasteride and minoxidil polymeric nanoparticle its process of preparation, aqueous suspension containing the same, pharmaceutical composition, and its use” (Biolab Sanus Farmaceutica Ltda., priority 2012, dated 2017).

System: men aged 18 to 41 years
Conditions: 1 mg daily, end of five years, 1553 men; placebo 75%

In the case of CC(C)(C)NC(=O)[C@H]1CC[C@H]2[C@@H]3CC[C@H]4NC(=O)C=C[C@]4(C)[C@H]3CC[C@]12C [finasteride], the “Patients who developed baldness” value is given as 10%.
